Data as given in patent US20090175848A1, “Modulation of the Cooperativity Between the Ion Channels TRPM5 and TRPA1” (priority 2007, published 2009).

Key:
[1] = system: Chinese hamster ovary (CHO) cells expressing TRPM5; assay: FLIPR assay in CHO cells expressing TRPM5; format: cell-based; settings: TRPM5 expressed in CHO cells
Experimental: (§1) To create a stably transfected cell line expressing hTRPM5, 1.0×10^6 HEK 293 cells (ATCC, Manassas, Va.) were seeded in 35 mm tissue culture dishes (Falcon, BD Biosciences, Bedford, Mass.) and grown overnight in a 37° C. and 5% CO2 incubator, in culture medium consisting of DMEM, 10% fetal bovine serum (FBS), and penicillin with streptomycin. The next day, the cells were transfected using 4 μg of pcDNA 3.2-hTRPM5 with 7 μl of Lipofectamine 2000 (Invitrogen), following the manufacturer's protocol. After two days in culture, the cells were replated at 1:10 and 1:100 dilution, and from those plates seeded at very low density in 96-well plates to isolate single-cell colonies. […]
For hTRPM5-293 or HEK293 assays, cells were seeded overnight in poly-D-lysine coated 384-well plates at 15,000 cells per well in 20 μl of media. […] The assay was performed using a fluorometric imaging plate reader (FLIPR-Tetra™, Molecular Devices, Sunnyvale, Calif.), using the excitation 510-545 nm and emission 565-625 nm filter sets. […] The plates were read on the FLIPR® for a total of 3 minutes for a single addition assay and 6 minutes for a 2 addition assay. For single addition assays, baseline fluorescence was obtained on the FLIPR® for 10 seconds followed by addition of each sample by the FLIPR® and read for an additional 2 minutes and 50 seconds. […]

[2] = system: TRPM5-expressing HEK cells; assay: Whole-cell electrophysiology in TRPM5-expressing HEK cells; format: cell-based, human; settings: whole-cell voltage clamp, voltage dependence
Experimental: Whole-cell recordings of TRP channel currents were obtained from acutely trypsinized TRPM5-expressing HEK cells. The bath solution was Hank's Balanced Salt Solution, composed of (mM); 1.2 CaCl2, 0.5 MgCl2-6H2O, 0.4 MgSO4-7H2O, 5.3 KCl, 0.4 KH2PO4, 137.9 NaCl, 0.3 Na2HPO4-7H2O, and 5.5 D-Glucose, with 20 mM HEPES (Invitrogen), pH 7.4 (NaOH). The internal pipette solution contained, in mM: 135 glutamic acid, 8 NaCl, 3 CaCl2, 10 HEPES and 10 EGTA, pH 7.2 (CsOH) (Sigma). Calculated concentration of free calcium in internal solution was 77 nM (MaxChelator, Stanford University). Recording pipettes were pulled using a Flaming/Brown Micropipette Puller (Sutter Instruments), from fire-polished borosilicate glass, to approximately 2 MΩ. Voltage clamp recordings were obtained in whole cell mode using MultiClamp 700B amplifier and Digidata 1322A converter running on Clampex 9.2 software (Axon Instruments). Recordings were performed at room temperature. Series resistance was automatically compensated immediately after the break-in. Data were sampled at 5 kHz and filtered at 1 kHz. AITC was dissolved in bath solution and applied to the cells with a multi-barrel applicator (SF-72, Warner Instruments).

[3] = system: TRPM5-expressing HEK-293 cells (TRPM5-293); assay: FLIPR membrane potential assay in TRPM5-293 cells; format: cell-based, human; settings: for effect on AITC membrane potential response: pre-treatment, then AITC, TRPM5-293 cells
Experimental: To create a stably transfected cell line expressing hTRPM5, 1.0×10^6 HEK 293 cells (ATCC, Manassas, Va.) were seeded in 35 mm tissue culture dishes (Falcon, BD Biosciences, Bedford, Mass.) and grown overnight in a 37° C. and 5% CO2 incubator, in culture medium consisting of DMEM, 10% fetal bovine serum (FBS), and penicillin with streptomycin. The next day, the cells were transfected using 4 μg of pcDNA 3.2-hTRPM5 with 7 μl of Lipofectamine 2000 (Invitrogen), following the manufacturer's protocol. After two days in culture, the cells were replated at 1:10 and 1:100 dilution, and from those plates seeded at very low density in 96-well plates to isolate single-cell colonies. To select individual clones, 1 mg/ml Geneticin (Invitrogen) was added to the culture medium. Once stably expressing clones were identified, the concentration of Geneticin was reduced to 0.25 mg/ml for expansion and maintenance. Clones were selected on the basis of their response to ATP (Sigma) and lonomycin (Sigma) in the FLIPR® assay using the Membrane Potential Assay Kit RED (Molecular Devices). Stable cell lines in chinese hamster ovary cells (CHO-M1) were created similarly except that 5.0×10^5 cells were plated in 35 mm dishes overnight and the selection medium consisted of F-12K/Ham's, 10% fetal bovine serum (FBS), 100 μg/ml of Geneticin, and 10 μg/ml Blasticidin S HCl, and penicillin with streptomycin. Stably expressing clones were maintained in the same medium except that the Balsticidin S HCl concentration was reduced to 5 μg/ml.
(§2) For hTRPM5-293 or HEK293 assays, cells were seeded overnight in poly-D-lysine coated 384-well plates at 15,000 cells per well in 20 μl of media. For assays of hTrpM5-CHO-M1 assays cells were seeded overnight in tissue culture treated 384-well plates at 10,000 cells per well in 20 μl of media. The assay was performed using a fluorometric imaging plate reader (FLIPR-Tetra™, Molecular Devices, Sunnyvale, Calif.), using the excitation 510-545 nm and emission 565-625 nm filter sets. The cells were loaded with 20 μl/well of Membrane Potential Assay Kit RED dye (Molecular Devices), in a 37° C. and 5% CO2 incubator for 1 hour. To measure intracellular calcium changes, the Calcium 3 dye (Molecular Devices) supplemented with 125 μM was used. The plates were equilibrated to room temperature for 15 minutes before the start of the assay. The compounds allyl isothiocyanate (AITC), cinnamaldehyde, EGTA, ionomycin, U73122, U73144 were purchased from Sigma-Aldrich (St. Louis, Mo.) and stocks prepared in DMSO. Samples were diluted in HBSS with 20 mM HEPES prior to the assay and 10 μl per well was added to the assay plate. The plates were read on the FLIPR® for a total of 3 minutes for a single addition assay and 6 minutes for a 2 addition assay. For single addition assays, baseline fluorescence was obtained on the FLIPR® for 10 seconds followed by addition of each sample by the FLIPR® and read for an additional 2 minutes and 50 seconds. For 2 addition assays, baseline fluorescence was obtained on the FLIPR® for 10 seconds followed by addition of the first sample (e.g. inhibitors, EGTA) by the FLIPR®, read for 2 minutes and 50 seconds, then followed by the addition of AITC and read for another 3 minutes. For ΔRFU measurements, the baseline fluorescence signal (RFUmin) was subtracted from the peak fluorescence signal (RFUmax) at each compound concentration (RFUmax—RFUmin). ΔRFU values for individual concentrations were measured in triplicate, and s.d. reported as error bars.

parental HEK-293 cells = assay: FLIPR calcium assay in untransfected cells; format: cell-based, human; settings: untransfected (parental HEK-293) cells
Experimental: as §2, with “The plates were equilibrated to room temperature for 15 minutes before the start of the assay. The compounds allyl isothiocyanate (AITC), cinnamaldehyde, EGTA, ionomycin, U73122, U73144 were purchased from Sigma-Aldrich (St. Louis, Mo.) and stocks prepared in DMSO. Samples were diluted in HBSS with 20 mM HEPES prior to the assay and 10 μl per well was added to the assay plate.” left out, “For ΔRFU measurements, the baseline fluorescence signal (RFUmin) was subtracted from the peak fluorescence signal (RFUmax) at each compound concentration (RFUmax—RFUmin). ΔRFU values for individual concentrations were measured in triplicate, and s.d. reported as error bars.” left out

[4] = system: TRPM5-expressing HEK-293 cells (TRPM5-293); assay: FLIPR calcium assay in TRPM5-293 cells; format: cell-based, human; settings: for effect on AITC calcium response: pre-treatment, then AITC, TRPM5-293 cells
Experimental: as §1, with “colonies. To select individual clones, 1 mg/ml Geneticin (Invitrogen) was added to the culture medium. Once stably expressing clones were identified, the concentration of Geneticin was reduced to 0.25 mg/ml for expansion and maintenance.” for “colonies.”
For hTRPM5-293 or HEK293 assays, cells were seeded overnight in poly-D-lysine coated 384-well plates at 15,000 cells per well in 20 μl of media. […] The assay was performed using a fluorometric imaging plate reader (FLIPR-Tetra™, Molecular Devices, Sunnyvale, Calif.), using the excitation 510-545 nm and emission 565-625 nm filter sets. […] The plates were read on the FLIPR® for a total of 3 minutes for a single addition assay and 6 minutes for a 2 addition assay. For single addition assays, baseline fluorescence was obtained on the FLIPR® for 10 seconds followed by addition of each sample by the FLIPR® and read for an additional 2 minutes and 50 seconds. For 2 addition assays, baseline fluorescence was obtained on the FLIPR® for 10 seconds followed by addition of the first sample (e.g. inhibitors, EGTA) by the FLIPR®, read for 2 minutes and 50 seconds, then followed by the addition of AITC and read for another 3 minutes. For ΔRFU measurements, the baseline fluorescence signal (RFUmin) was subtracted from the peak fluorescence signal (RFUmax) at each compound concentration (RFUmax—RFUmin). ΔRFU values for individual concentrations were measured in triplicate, and s.d. reported as error bars.

[5] = agonist added to TRPM5-293 cells, FLIPR

SMILES	activation of TRPM5 [1]	desensitization of the AITC-activated current [2]	EC50 ([3]; Homo sapiens, HEK293, read-out: EC50 (tested concentration closest to it))	EC90 ([3]; Homo sapiens, HEK293, read-out: EC90 (tested concentration closest to it))	membrane potential response [3, 5]	intracellular calcium response (parental HEK-293 cells)	intracellular calcium levels [4, 5]	effect on AITC membrane potential response [3]	effect on AITC calcium response [4]	effect on ionomycin membrane potential response ([3]; ionomycin as stimulus)
C=CCN=C=S [AITC, allyl isothiocyanate]	does not activate	delayed at positive membrane potentials	~3 µM	~33 µM	strong membrane potential response	no response	increase in intracellular calcium levels	–	–	–
O=C(O)CN(CCOCCOCCN(CC(=O)O)CC(=O)O)CC(=O)O [EGTA]	–	–	–	–	–	–	–	altered the membrane potential	inhibited the calcium response	–
COc1ccc2c(c1)CC[C@@H]1[C@@H]2CC[C@]2(C)[C@@H](NCCCCCCN3C(=O)C=CC3=O)CC[C@@H]12 [U73122]	–	–	–	–	–	–	–	enhanced	enhanced	enhances
